How the values were obtained:
[1] = administered 4-PBA; cited from earlier work
ΔF508-CFTR/Hsc70 complex = test: Immunoprecipitation of Hsc70 and coimmunoprecipitation of CFTR from treated IB3-1 cells; format: cell-based, human; conditions: 2 days
Hsc70 = Hsc70 immunoblot of IB3-1 whole cell lysates; format: cell-based, human; conditions: IB3-1 cells
Description: 3. Immunoblot analysis. Whole cell lysates were prepared by solubilization with 2% SDS at 95° C. Protein concentration in the lysates was determined using the Bio-Rad DC assay reagents with bovine plasma g-globulin as a standard (Bio-Rad Laboratories, Hercules, Calif.). Equal amounts of protein was resolved on 5, 7, 8, or 9% SDS-polyacrylamide gels. Proteins were transferred to nitrocellulose, and immunodetection was performed as previously described (25). Nonspecific binding was blocked by incubation of the nitrocellulose with 2% gelatin or 10% nonfat day milk. Primary antisera and secondary antibodies were applied in buffer containing 0.4% BSA overnight at 4° C. and for 1 h at room temperature, respectively. Detection of immunoreactivity was performed with the enhanced chemiluminescence reagent (ECL, Amer-sham) and fluorography. Recombinant bovine Hsc70 ([…]) was purchased from Stressgen Biotechnologies for use in constructing a standard curve of Hsc70 immunoreactivity. Immunoblots containing the bovine Hsc70 were probed with the Hsc70-specific polyclonal antiserum.

[2] = increasing concentrations of 4-PBA

Question: What does the source list for `O=C(O)CCCc1ccccc1` [4-PBA, 4-phenylbutyric acid]?
Answer: toxicity [1]: little toxicity beyond a slightly bitter taste, mild stomach discomfort or mild peripheral edema if severely anemic; 4-PBA concentration at which CFTR was undetectable in the immunoprecipitates (ΔF508-CFTR/Hsc70 complex): > 1 mM; immunoprecipitable Hsc70 (ΔF508-CFTR/Hsc70 complex; [2]): decreased amounts; immunoreactive CFTR recovered in complex with Hsc70 (ΔF508-CFTR/Hsc70 complex; [2]): less immunoreactive CFTR was recovered; decrease in Hsc70 immunoreactivity (Hsc70; 4-PBA 2 days, densitometry): ~50%; total Hsc70 immunoreactivity in whole cell lysates (Hsc70; increasing concentrations of 4-PBA, 2 days): declined in a dose-dependent fashion

— patent US7557144B1, “Modulation of protein expression using carbocyclic aryl alkenoic acid derivatives” (The Johns Hopkins University, priority 2000, dated 2009)
